Measurements: ChEMBL document CHEMBL1201862, “PubChem BioAssay data set” (2004)
Activity calls are given as the source filed them.

Tests used:
H9c2 = assay: cells; assay type: functional, cell-based; settings: Rattus norvegicus, H9c2, Myocardium;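 note: confirmatory concentration-response retest of ultra-high-throughput screening hits for modulation of myocardial damage; cell death induced by hydrogen peroxide oxidative stress; compound pretreatment for 60 min then peroxide exposure for 2 h; potency is for protecting the cells against peroxide damage rather than for killing them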
[1] = target: T1, Ubiquitin-conjugating enzyme E2 N (Homo sapiens, UniProt P61088); assay type: functional;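 note: Dose-response confirmation in a TR-FRET assay detecting UBC13-driven polyubiquitin chain formation, inhibition measured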
T1 sequence (P61088 whole entry): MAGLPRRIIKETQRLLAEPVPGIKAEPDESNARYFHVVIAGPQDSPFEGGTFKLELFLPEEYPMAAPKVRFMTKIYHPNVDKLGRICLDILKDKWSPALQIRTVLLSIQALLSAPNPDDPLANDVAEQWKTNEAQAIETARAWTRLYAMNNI

[2] = target: T2, Heat shock factor protein 1 (Mus musculus, UniProt P38532); assay: decrease of HSF1-responsive luciferase luminescence – cell-based, NIH3T3, dose retest, confirmation (AID 2382); assay type: functional;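 note: NIH3T3 fibroblasts with HSF1-driven luciferase reporter stressed by proteasome inhibitor MG132; luminescence from HSF1-driven luciferase expression after 8 hours of MG132 stress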
T2 sequence (P38532 whole entry): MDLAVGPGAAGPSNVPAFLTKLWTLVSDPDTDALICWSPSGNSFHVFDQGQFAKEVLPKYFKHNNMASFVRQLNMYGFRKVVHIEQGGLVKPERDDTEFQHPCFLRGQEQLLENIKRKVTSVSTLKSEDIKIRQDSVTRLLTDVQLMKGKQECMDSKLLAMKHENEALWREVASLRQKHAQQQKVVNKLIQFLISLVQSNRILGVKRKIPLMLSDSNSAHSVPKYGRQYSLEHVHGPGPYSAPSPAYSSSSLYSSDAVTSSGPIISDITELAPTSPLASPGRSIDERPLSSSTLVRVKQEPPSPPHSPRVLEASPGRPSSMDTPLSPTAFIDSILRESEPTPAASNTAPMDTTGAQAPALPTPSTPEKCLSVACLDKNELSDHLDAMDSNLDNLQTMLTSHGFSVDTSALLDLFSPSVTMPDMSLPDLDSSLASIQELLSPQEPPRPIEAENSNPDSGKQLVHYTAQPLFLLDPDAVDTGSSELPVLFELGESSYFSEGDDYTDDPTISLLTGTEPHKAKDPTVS

[3] = target: DNA dC->dU-editing enzyme APOBEC-3G (Homo sapiens, UniProt Q9HC16); assay: Dose Response confirmation of small molecule APOBEC3G DNA Deaminase Inhibitors via a fluorescence-based single-stranded DNA deaminase assay. [Related pubchem assays (depositor defined):AID493012, AID493028]; assay type: functional
DNA dC->dU-editing enzyme APOBEC-3G, sequence (Q9HC16 whole entry, the tested form may be a part): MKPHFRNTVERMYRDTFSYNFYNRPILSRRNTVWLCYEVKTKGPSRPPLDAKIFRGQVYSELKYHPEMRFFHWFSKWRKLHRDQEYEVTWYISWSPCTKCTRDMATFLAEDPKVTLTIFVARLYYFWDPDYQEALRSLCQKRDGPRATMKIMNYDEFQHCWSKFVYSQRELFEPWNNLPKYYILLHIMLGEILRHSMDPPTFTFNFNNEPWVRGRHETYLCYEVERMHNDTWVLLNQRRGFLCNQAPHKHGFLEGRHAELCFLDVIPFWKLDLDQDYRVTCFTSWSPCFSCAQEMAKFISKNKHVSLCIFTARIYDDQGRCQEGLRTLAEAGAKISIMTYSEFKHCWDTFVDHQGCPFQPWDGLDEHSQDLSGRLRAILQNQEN

[4] = blockers of HIV-1 envelope-mediated cell-cell fusion – cherry-pick, dose response (AID 652057); assay type: functional, cell-based
[5] = off-target signal loss in HeLa-CEM21 co-culture – HeLa F-luc CTL cells, cherry-picked, counter-screen for HIV-1 Env fusion inhibitor project, dose response (AID 652040); assay type: functional, cell-based;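 note: potency for signal decrease marking cytotoxic or nonspecific inhibition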
[6] = HIV-1 AD8 envelope cell-cell fusion blockers – cherry-pick, dose response (AID 652062); assay type: functional, cell-based;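 note: luciferase signal from cell-cell fusion driven by HIV-1 clade B AD8 Env; potency is for inhibitors of fusion seen as a drop in luminescence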
[7] = HPDE-C7 pancreatic duct cell viability loss – fluorescence, HTS (AID 430); assay type: functional, cell-based; settings: Homo sapiens
[8] = viability loss of HPDE-C7K cells – cell-based, fluorescence, HTS, primary screen (AID 431); assay type: functional; settings: Homo sapiens
HeLa = assay: ATP-based viability loss in HeLa cells – cell-based, CellTiter-Glo luminescence, cherry-pick samples, cytotoxicity control for MITF activator project, dose response (AID 540259); assay type: functional; settings: Homo sapiens
[9] = loss of viability in HepG2 cells – cell-based, CellTiter-Glo, cherry-picked, cytotoxicity control for Shn3 inhibitor project, dose response (AID 624134); assay type: functional
[10] = luciferase reporter signal suppression in cells – H4 neuroglioma cells, luminescence, dose response (AID 1990); assay type: functional, cell-based
[11] = Luminescence Cell-Based Dose Response HTS to Identify Inhibitors of 5'UTR Stem-Loop Driven Prion Protein mRNA Translation in H4 Neuroglioblastoma Cells. [Related pubchem assays: 1827 (Project Summary), 1813 (Primary HTS)]; assay type: functional
[12] = reduction of Shn3 3'UTR-driven luciferase in osteoblasts – cell-based, Clone20 osteoblasts, firefly luciferase, cherry-picked, dose response (AID 624132); assay type: functional;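 note: firefly luciferase luminescence from reporter carrying the Shn3 3'UTR in osteoblasts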
[13] = non-specific 3'UTR reporter inhibition in Clone20-Shn3RL – cell-based, Renilla luciferase, cherry-picked, counter-screen for Shn3 inhibitor project, dose response (AID 624133); assay type: functional
[14] = alpha-synuclein stem-loop luciferase translation blockers – H4 neuroglioma cells, luminescence, confirmation (AID 1988); assay type: functional, cell-based
INS1 = assay: INS-1E survival protection against cytokine death – cell-based, luminescence, retest, dose response (AID 449756); assay type: functional; settings: Rattus norvegicus;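 note: cell death triggered by IL-1 beta plus TNF-alpha plus IFN-gamma mixture; protective hits raise ATP signal compared with cytokine alone wells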
[15] = blockers of HIV-1 ZM109 envelope-driven cell-cell fusion – HeLa effector, CEM target cells, luciferase, cherry-pick, dose response (AID 652058); assay type: functional, cell-based;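 note: luciferase signal from HIV-1 Env mediated cell-cell fusion of effector and target cells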
[16] = target: T3, DNA repair and recombination protein RAD54-like (Homo sapiens, UniProt Q92698); assay: RAD54 Holliday junction migration blockers – biochemical, fluorescence, cherry-picked samples, dose series, confirmation (AID 651657); assay type: functional
T3 sequence (Q92698 whole entry): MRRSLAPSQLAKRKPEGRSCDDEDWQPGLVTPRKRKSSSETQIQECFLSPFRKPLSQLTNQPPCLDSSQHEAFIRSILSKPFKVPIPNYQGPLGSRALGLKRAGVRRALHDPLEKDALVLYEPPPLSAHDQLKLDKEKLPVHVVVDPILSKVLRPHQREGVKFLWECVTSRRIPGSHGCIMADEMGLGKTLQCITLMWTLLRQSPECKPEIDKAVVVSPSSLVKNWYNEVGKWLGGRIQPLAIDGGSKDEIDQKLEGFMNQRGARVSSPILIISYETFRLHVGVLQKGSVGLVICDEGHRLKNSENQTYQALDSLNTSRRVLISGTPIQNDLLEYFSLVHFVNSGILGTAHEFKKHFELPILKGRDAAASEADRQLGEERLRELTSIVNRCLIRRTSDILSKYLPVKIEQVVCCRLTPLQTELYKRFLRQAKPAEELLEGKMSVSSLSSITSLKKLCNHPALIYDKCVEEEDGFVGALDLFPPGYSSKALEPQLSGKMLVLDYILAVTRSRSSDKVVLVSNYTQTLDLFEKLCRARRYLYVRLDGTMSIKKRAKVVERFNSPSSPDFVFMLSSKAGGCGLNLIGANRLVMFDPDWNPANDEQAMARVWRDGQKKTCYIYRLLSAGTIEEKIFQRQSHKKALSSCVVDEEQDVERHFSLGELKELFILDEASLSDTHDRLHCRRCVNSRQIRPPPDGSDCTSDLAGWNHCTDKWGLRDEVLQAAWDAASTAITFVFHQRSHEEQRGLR

cells [17] = assay type: functional, cell-based
cells [18] = assay type: functional, cell-based; remark: listed apart in the source
[19] = Trypanosoma cruzi growth suppression in host cells – NIH3T3 host cells, beta-gal luminescence, confirmation (AID 2044); assay type: functional, cell-based;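 note: intracellular parasites grown in NIH/3T3 mouse fibroblasts as host cells; luminescent beta-galactosidase reporter signal from transgenic T. cruzi replicating inside host cells; inhibitors lower the luminescence signal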
[20] = NIH3T3 cell viability loss – ATP luminescence, mouse fibroblasts, counter-screen, dose response (AID 2010); assay type: functional, cell-based;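 note: cells exposed to compound for about 90 hours before reading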
[21] = Luminescence Cell-Based Dose Retest to Confirm Inhibitors of Cancer Stem Cells. [Related pubchem assays (depositor defined):AID2717, AID2721]; assay type: functional; settings: Homo sapiens
SN12K1 = assay: cells; assay type: functional; settings: Homo sapiens, SN12K1
P388/ADR = assay: cells; assay type: functional; settings: Mus musculus, P388/ADR

In the case of `CN(C(=O)Cn1nc(C(=O)O)c2ccccc2c1=O)C1(C#N)CCCCC1`, the IC50 (H9c2) is reported as > 79 µM (inactive).

For `O=S1(=O)CC(O)C(N=Nc2c(O)n(Cc3ccccc3)c3ccccc23)C1` (stereo unspecified), the IC50 [1] was > 20 µM (inactive).

For `COc1ccc(/C=N/n2c(S)nnc2-c2cc(C)[nH]n2)cc1OC`, the EC50 [2] was > 195 µM (not active) and the IC50 [3] was 8.3 µM (active).

With `Cc1cc2c3c(c1)C1(SCC(=O)N1c1ccc(F)cc1)C(=O)N3C(C)(C)CC2C` (stereo unspecified) the AC50 [4] was 3.4 µM (active), the AC50 [5] was > 32 µM (inactive) and the AC50 [6] was 9.73 µM (active).

In the case of `COc1cc(-c2nnc(COC(=O)c3cc(C)nc4ccc(C)cc34)o2)cc(OC)c1OC`, the IC50 (H9c2) is reported as 12.3 µM (active).

In the case of `C#CCOCCOCCOCCNc1nc(N2CCN(C(=O)[C@H](CO)n3cc([C@@H](N)C(C)C)nn3)CC2)nc(N2CCN(C(=O)[C@H](CCC(=O)O)n3cc([C@@H](N)CCCCN)nn3)CC2)n1`, the IC50 [1] is reported as > 20 µM (inactive).

With `CCOC(=O)c1c(NC(=O)c2ccc(-n3cnnn3)cc2)sc2c1CCCC2` the EC50 [7] was > 20 µM (not active) and the EC50 [8] was > 20 µM (not active).

For `c1csc(-c2noc(COc3ccc4c(c3)CCCC4)n2)c1`, the AC50 (HeLa) was > 350 µM (inactive).

In the case of `Cc1ccc(-c2cc(-c3ccc(C)cc3O)[nH]n2)cc1`, the AC50 (HeLa) is reported as 44.6 µM (active).

With `O=C(N/N=C\c1cccc(Cl)c1)c1[nH]nc2c1CCCC2` the AC50 (HeLa) was > 350 µM (inactive).

In the case of `CC[C@H]1CN2CCc3cc(OC)c(OC)cc3[C@@H]2C[C@@H]1C[C@H]1NCCc2cc(OC)c(OC)cc21`, the EC50 [7] is reported as 0.15 µM (active), the AC50 [9] is reported as 40.5 µM (active) and the EC50 [10] is reported as < 0.1 µM (active). For the same compound, the EC50 [2] was < 0.16 µM (active), the EC50 [11] was < 0.1 µM (active) and the AC50 [12] was < 0.26 µM (active). The AC50 [13] was 0.33 µM (active), the EC50 [8] was 0.09 µM (active) and the EC50 [14] was < 0.1 µM (active). The AC50 (INS1) was 2.35 µM (active).

In the case of `COc1ccc(-c2csc(-n3cccn3)n2)cc1`, the AC50 (HeLa) is reported as 33.9 µM (active).

With `COC(=O)c1ccccc1NC(=O)c1nc2nc(C)cc(C)n2n1` the IC50 (H9c2) was > 79 µM (inactive).

For `COc1ccc(N2C(=O)NC(=O)/C(=C(/C)NCCCn3ccnc3)C2=O)cc1`, the AC50 [15] was 4.33 µM (active), the AC50 [4] was 2.49 µM (active) and the AC50 [5] was 19.5 µM (active). The AC50 [6] was 6.76 µM (active).

With `CC(C)c1ccc(NC2=NN=C(c3cccs3)CS2)cc1` the AC50 (HeLa) was 63.8 µM (active).

For `C=CCC1(CC=C)CCCN1C(=O)C1CCC(=O)N(CCc2ccccc2)C1` (stereo unspecified), the AC50 (HeLa) was 93 µM (active).

With `CC(C)N1CCc2c(sc(NC(=O)c3ccc(C(=O)c4ccccc4)cc3)c2C(N)=O)C1` the AC50 [16] was 68.7 µM (active).

In the case of `COc1ccc(CC(=S)N2CCOCC2)cc1`, the IC50 [3] is reported as 46.1 µM (active).

For `COc1ccccc1CN1C(=O)CN(C2CCCCCC2)C(=O)C1c1ccc(F)cc1` (stereo unspecified), the AC50 [15] was 20.9 µM (active), the AC50 [4] was 30.9 µM (active) and the AC50 [5] was 60.9 µM (active).

For `CC(=O)N1CCN(C(=O)CCc2nc(O)c3ccccc3n2)CC1`, the IC50 (H9c2) was > 79 µM (inactive).

For `CCC[C@@H](CN1CCC[C@H]1CN1C(N)=NC[C@@H]1Cc1ccccc1)N1C[C@@H]([C@H](C)CC)N(CCc2ccc(Cl)c(Cl)c2)C1=N`, the IC50 [1] was > 20 µM (inactive).

For `CCOc1ccc2[nH]c3c(NCCN(C)C)ncnc3c2c1`, the AC50 [16] was 55.6 µM (active).

With `C/C(=N\NC(=O)c1cc(-c2cccnc2)nc2ccccc12)c1ccccc1O` the EC50 (cells [17]) was > 350 µM (not active), the EC50 (cells [18]) was 16.8 µM (active) and the EC50 [19] was 0.834 µM (active). The AC50 (INS1) was 0.971 µM (active) and the EC50 [20] was 2.18 µM (active).

For `NS(=O)(=O)c1ccc(NC=C2C(=O)N(C3CCCCC3)C(=O)N(C3CCCCC3)C2=O)cc1`, the EC50 [7] was 5.47 µM (active), the EC50 [8] was 5.81 µM (active) and the AC50 [21] was 3.92 µM (active).

With `CN(C)Cc1ccc(-c2nc3cccc4c3n2CCNC4=O)cc1` the IC50 (H9c2) was > 79 µM (inactive).

With `NC(=O)c1nsc(C(=O)N(c2cccc(F)c2)C(C(=O)NCC2CCCO2)c2c[nH]c3ccccc23)c1N` (stereo unspecified) the IC50 [1] was > 20 µM (inactive).

In the case of `CCCCN=C(S)Nc1ccc2c[nH]nc2c1`, the EC50 (cells [17]) is reported as > 350 µM (not active) and the EC50 (cells [18]) is reported as > 350 µM (not active).

In the case of `O=C(COC(=O)c1ccc([N+](=O)[O-])o1)Nc1cccc(S(=O)(=O)N2CCCCC2)c1`, the IC50 (H9c2) is reported as > 79 µM (inactive).

With `O=NN(CCCl)C(=O)NC1CCC(CC2CCC(NC(=O)N(CCCl)N=O)CC2)CC1` (stereo unspecified) the GI50 (SN12K1) was 0.385 µM (active) and the GI50 (P388/ADR) was 1.64 µM (inactive).

In the case of `Cc1cc(NC(=O)CSc2nc3c(c(=O)n2-c2ccc(Cl)cc2)SCC3)no1`, the EC50 (cells [17]) is reported as > 350 µM (not active) and the EC50 (cells [18]) is reported as > 350 µM (not active).

With `O=C(CCc1nc(O)c2ccccc2n1)Nc1ccc(N2CCCCC2)cc1` the IC50 (H9c2) was > 79 µM (inactive).

In the case of `CCCCC(=O)Nc1ccc(NC(=O)CC)cc1OC`, the EC50 (cells [17]) is reported as > 350 µM (not active) and the EC50 (cells [18]) is reported as > 350 µM (not active).

With `CC(C)Cn1nc(NS(=O)(=O)c2ccccc2)c2cc3ccccc3nc21` the EC50 [7] was > 20 µM (not active) and the EC50 [8] was > 20 µM (not active).

With `CC(=O)c1sc(NC(=O)c2ccc3c(c2)OCO3)nc1C` the AC50 (HeLa) was 51.5 µM (active).

In the case of `CCn1cc(C(=O)NCCN(C)C)c(=O)c2cc(F)c(N3CCN(C)CC3)cc21`, the AC50 [16] is reported as 21.1 µM (active).

With `CCn1c(=O)c2cc(C(=O)NCCN(C)C)sc2c2ccccc21` the AC50 [16] was 30.7 µM (active) and the IC50 [1] was > 20 µM (inactive).
